Consider four compounds from article PMC11653243, “Enhancing Phototoxicity in BODIPY‐Perylene Charge Transfer Dyads by Combined Iodination and Mesylation” (Chemistry (Weinheim an Der Bergstrasse, Germany), 2024).

One experiment deals with CHO cells. Kind of experiment: Phototoxicity, 470 nm LED, alamar blue assay. Format: cell-based, Chinese Hamster. The following applies: 17 J/cm^2, 470 nm LED. As to the method:
(§1) The phototoxicity of the BODIPY's were assessed to compare the light induced toxicity of the iodinated compounds with their non‐iodinated counterparts. CHO and MCF‐7 cells were treated with B2P, B2PI, MB2P, and MB2PI in a concentration range from 0.10–1 μM for 17 h, the wells were decanted and filled with 100 μL phenol red free media prior to irradiation with a 470 nm LED (17 J/cm^2). Cell viability was determined using the alamar blue cell viability assay and % viability was calculated relative to untreated control wells.
(§2) Dark‐ and photo‐toxicity studies were performed by seeding CHO and MCF‐7 cells in clear 96‐well plates (Nunc) and treating with varying concentrations of B2P, MB2P, B2PI and MB2PI. Phototoxicity experiments were carried out using a 470 nm LED. For hypoxic phototoxicity studies, hypoxia was mimicked by adding CoCl2 to the cells prior to irradiation. Cell viability was determined using the alamar blue assay and absorbance measured with a BMG LABTECH CLARIOstar plate reader. […]
(§3) For 24 h dark toxicity studies, 50, 10, 5 and 1 µM stock concentrations of B2P, B2PI, MB2P and MB2PI were prepared in media to a final DMSO concentration of ≤1%. 100 µL of each concentration was added to the wells in triplicate and the plates incubated for 24 h in the dark at 37°C. Cell viability of all plate-based studies was assessed using the alamar blue assay. A 10% Resazurin-media solution (alamarBlue, Invitrogen) was added to the wells and incubated for 5 h in the absence of light. Absorbance was measured using a BMG LABTECH CLARIOstar plate reader at 570 nm and 600 nm (corrected for background subtraction). Cell viability is presented as a percentage (%) compared to untreated control wells. Plates were performed in triplicate.
(§4) Phototoxicity and dark control plates were performed by incubating CHO or MCF-7 cells with B2P, B2PI, MB2P and MB2PI for 17 h to allow uptake, emptying the wells, replacing with phenol red free media, and irradiating at a total dose of 17 ± 1.64 J/cm2 (2 h at 2.37 ± 0.23 mW/cm2) using a 470 nm LED (TeleOpto LEDA-X LED driver and array). Control plates were incubated in the dark during the irradiation period (2 h). After irradiation, the cells were incubated in the dark overnight to allow for cell recovery. Irradiation conditions were tested on untreated cells to confirm cells remained viable at this dose before any experiments were performed and each phototoxicity plate included untreated test wells for cell viability comparison. Viability was determined using the alamar blue assay as per the cytotoxicity

A further experiment relates to MCF‐7 cells. Kind of experiment: Phototoxicity, 470 nm LED, alamar blue assay. The following applies: for Photo Index (PI), ratio of dark IC50 to light IC50: 17 J/cm^2, 470 nm LED; for IC50: Homo sapiens, MCF7, light or radiation study, 17 h incubation, 470 nm LED, 17±1.64 J/cm^2 (2.5 mW/cm^2 for 2 h). The format is cell-based. As to the method: as §1, §2, §3, §4

For the next experiment, the system named is MCF‐7 spheroids. The experiment in a line: Spheroid dark toxicity, CellTiter-Glo 3D. The format is cell-based. The following applies: Homo sapiens, MCF7, light or radiation study; MCF‐7 3D (spheroids); without irradiation. On the procedure:
3D Cell Studies: Toxicity Assays
Spheroids were seeded in a clear BIOFLOAT™ round bottom 96 well plate (Sarstedt) at 2x10^4 cells per well, centrifuged using the […] for 5 minutes at 700 rpm and allowed to grow and compact for 96 hours. A 2X concentrated solution of B2P, B2PI, MB2P or MB2PI was added in a 1:1 ratio (BODIPY:media) to each well of the 96 well plate, which contained 50 µL phenol red free media, and incubated for 24 h. Prior to irradiation 90% of the media/Ru solution was removed, replaced with fresh phenol red media to dilute the remaining BODIPY (multiple dilution steps, more required for 15 µM and above), and brought to a total volume of 100 µL. Phototoxicity studies in […] spheroids were performed as per the cell monolayer protocol with an irradiation dose of 5 J/cm2 using a 470 nm LED.
Control studies with untreated spheroids confirmed 17 J/cm2 irradiation dose was toxic to spheroids, however the spheroids remained viable after 5 J/cm2 irradiation. CellTiter-Glo 3D cell viability assay (Promega) was used to assess spheroid viability and performed as per the manufacturer’s protocol, where the CellTiter-Glo 3D reagent was added to the spheroid wells
For orientation: ATP-based viability assays read luminescence as a measure of living cells.

Where only a bound is given, the exact number is not on record here.

Consider `CC1=C(I)C(C)=[N+]2C1=C(c1ccccc1)c1c(C)c(-c3ccc4c5cccc6cccc(c7cccc3c74)c65)c(C)n1[B-]2(F)F` [B2PI], for which the “Photo Index (PI), ratio of dark IC50 to light IC50” value (“Photo Index (PI), ratio” for short) with CHO cells is given as above 87; in the experiment on MCF‐7 cells it was above 213. Besides, the midpoint of inhibition in the experiment on MCF‐7 spheroids, the IC50, lay at 44 ± 3.84 µM.

For the compound `CC1=CC(C)=[N+]2C1=C(c1ccccc1)c1c(C)c(-c3ccc4c5cccc6cccc(c7cccc3c74)c65)c(C)n1[B-]2(F)F` [B2P], the figures for the “Photo Index (PI), ratio” value with CHO cells and with MCF‐7 cells were above 76 and above 182, respectively. Moreover, the IC50 (as a rule, the concentration that inhibits the measured activity by half) in the experiment on MCF‐7 cells was 274 nM; in the experiment with MCF‐7 spheroids, 46 ± 2.38 µM.

Consider `CC1=C(c2ccc3c4cccc5cccc(c6cccc2c63)c54)C(C)=[N+]2C1=C(c1c(C)cc(C)cc1C)c1c(C)cc(C)n1[B-]2(F)F` [MB2P], for which the “Photo Index (PI), ratio” value with CHO cells was above 64; in the experiment on MCF‐7 cells, above 109. The IC50 in the experiment on MCF‐7 cells was 457 nM; in the experiment with MCF‐7 spheroids, above 50 µM.

For `CC1=C(c2ccc3c4cccc5cccc(c6cccc2c63)c54)C(C)=[N+]2C1=C(c1c(C)cc(C)cc1C)c1c(C)c(I)c(C)n1[B-]2(F)F` [MB2PI], the “Photo Index (PI), ratio” value with CHO cells is reported as above 132; with MCF‐7 cells it was above 218. The IC50 in the experiment on MCF‐7 cells is 229 nM; in the experiment on MCF‐7 spheroids, above 50 µM.
